Laboratory results taken from ChEMBL document CHEMBL1201862, “PubChem BioAssay data set” (2004).
One block for each compound: values may come before it. Activity calls are given as the source filed them.

Tests used:
[1] = molecular target: Glyceraldehyde-3-phosphate dehydrogenase (Homo sapiens, UniProt P04406)
[2] = molecular target: T1, Alkaline phosphatase, tissue-nonspecific isozyme (Homo sapiens, UniProt P05186); assay: potency against alkaline phosphatase TNAP – biochemical, luminescent, dose response, SAR follow-up (AID 1056)
T1 sequence (P05186 whole entry): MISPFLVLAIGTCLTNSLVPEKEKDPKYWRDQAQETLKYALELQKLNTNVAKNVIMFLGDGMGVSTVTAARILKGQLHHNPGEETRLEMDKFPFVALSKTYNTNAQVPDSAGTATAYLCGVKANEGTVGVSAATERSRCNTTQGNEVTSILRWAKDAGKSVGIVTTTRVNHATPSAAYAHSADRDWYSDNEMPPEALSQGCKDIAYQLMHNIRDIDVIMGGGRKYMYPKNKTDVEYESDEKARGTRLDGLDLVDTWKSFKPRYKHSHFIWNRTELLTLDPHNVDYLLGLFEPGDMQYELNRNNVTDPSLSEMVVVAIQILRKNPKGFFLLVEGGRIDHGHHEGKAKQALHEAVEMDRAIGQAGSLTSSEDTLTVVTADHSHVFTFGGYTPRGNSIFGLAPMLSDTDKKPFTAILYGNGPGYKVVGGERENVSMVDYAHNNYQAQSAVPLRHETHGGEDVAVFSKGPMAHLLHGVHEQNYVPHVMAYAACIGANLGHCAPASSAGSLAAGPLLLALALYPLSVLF

[3] = molecular target: T2, Polyadenylate-binding protein 1 (Homo sapiens, UniProt P11940); assay: MLLE binding blockers, Cy5 peptide tracer – biochemical, fluorescence polarization, Cy5-PAM2 peptide, secondary, miRNA deadenylation inhibitor project, dose response (AID 602260); format: functional; settings: read-out: IC50_Mean
Beta-galactosidase = Beta-galactosidase (Escherichia coli, UniProt Q8VNN2); assay: detection-enzyme interference by beta-gal modulators – biochemical, E. coli enzyme, set 3, artefact control for CCR6 antagonist project, dose response (AID 504712); format: functional
[4] = molecular target: T2, Polyadenylate-binding protein 1; assay: MLLE domain peptide-binding blockers, IC50 – biochemical, fluorescence polarization, FITC-PAM2 peptide, dose response (AID 602259); format: functional; settings: read-out: IC50_Mean
Estrogen receptor = molecular target: T3, Estrogen receptor (Homo sapiens, UniProt P03372);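 also: potency for inhibiting coactivator peptide recruitment to the receptor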
T3 sequence (P03372 whole entry): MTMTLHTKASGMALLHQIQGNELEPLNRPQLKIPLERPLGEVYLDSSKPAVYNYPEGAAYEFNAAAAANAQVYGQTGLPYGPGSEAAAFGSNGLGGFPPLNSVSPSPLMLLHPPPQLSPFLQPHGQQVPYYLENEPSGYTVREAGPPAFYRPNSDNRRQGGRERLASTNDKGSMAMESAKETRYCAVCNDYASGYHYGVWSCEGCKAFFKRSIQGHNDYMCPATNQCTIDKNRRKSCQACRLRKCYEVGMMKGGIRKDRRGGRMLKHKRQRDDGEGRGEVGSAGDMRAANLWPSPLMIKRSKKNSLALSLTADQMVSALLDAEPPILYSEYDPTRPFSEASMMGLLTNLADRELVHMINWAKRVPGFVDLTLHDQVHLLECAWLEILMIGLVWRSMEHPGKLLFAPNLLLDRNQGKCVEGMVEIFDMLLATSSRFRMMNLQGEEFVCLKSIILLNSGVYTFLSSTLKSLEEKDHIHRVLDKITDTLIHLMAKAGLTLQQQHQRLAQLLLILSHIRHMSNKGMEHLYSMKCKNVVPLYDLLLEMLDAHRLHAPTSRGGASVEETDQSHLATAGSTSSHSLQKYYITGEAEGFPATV

Cytochrome P450 2C9 = Cytochrome P450 2C9 (Homo sapiens, UniProt P11712); settings: Potency
[5] = molecular target: T4, Voltage-gated N-type calcium channel alpha-1B subunit/Amyloid beta A4 precursor protein-binding family A member 1 (Homo sapiens, UniProt Q00975+Q02410); format: protein assay
[6] = molecular target: T4, Voltage-gated N-type calcium channel alpha-1B subunit/Amyloid beta A4 precursor protein-binding family A member 1; format: protein assay; remark: listed apart in the source
[7] = viability of uninfected HEp-2 cells – cell-based, HTS, cytotoxicity control for RSV inhibitor project, dose response (AID 2410); format: functional; settings: human respiratory syncytial virus
[8] = molecular target: T5, Ubiquitin-conjugating enzyme E2 N (Homo sapiens, UniProt P61088); format: functional
T5 sequence (P61088 whole entry): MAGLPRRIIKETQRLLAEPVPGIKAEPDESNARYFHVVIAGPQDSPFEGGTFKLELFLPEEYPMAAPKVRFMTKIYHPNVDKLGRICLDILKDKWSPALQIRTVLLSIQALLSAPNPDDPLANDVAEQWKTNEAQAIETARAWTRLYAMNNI

Bcl-2-related protein A1 = molecular target: T6, Bcl-2-related protein A1 (Mus musculus, UniProt Q07440); format: functional;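 also: confirmatory dose–response counterscreen on Bfl-1, used to check hits from a UBC13 polyubiquitin inhibitor campaign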
T6 sequence (Q07440 whole entry): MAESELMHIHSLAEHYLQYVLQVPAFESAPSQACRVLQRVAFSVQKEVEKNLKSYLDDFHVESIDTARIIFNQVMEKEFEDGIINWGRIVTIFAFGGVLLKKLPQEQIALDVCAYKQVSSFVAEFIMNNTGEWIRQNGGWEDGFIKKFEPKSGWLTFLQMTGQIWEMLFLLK

[9] = molecular target: T5, Ubiquitin-conjugating enzyme E2 N; format: functional; remark: listed apart in the source
[10] = viability of PTEN-deleted HCT116 cells – cell-based, HCT116 PTEN knockout, dose response (AID 1047); format: functional;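 also: HCT116 colon tumor cells with PTEN knocked out; cells exposed to compound for 60 hours before readout; potency for loss of cell viability measured by luminescence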
[11] = viability of HCT116 lacking mutant beta-catenin – cell-based, human colon tumor, dose response (AID 1045); format: functional;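 also: HCT116 colon tumor cells with beta catenin knocked out; cells exposed to compound for 60 hours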
[12] = Trypanosoma cruzi growth suppression in host cells – NIH3T3 host cells, beta-gal luminescence, confirmation (AID 2044); format: functional, cell-based;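 also: intracellular parasites grown in NIH/3T3 mouse fibroblasts as host cells; luminescent beta-galactosidase reporter signal from transgenic T. cruzi replicating inside host cells; inhibitors lower the luminescence signal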
[13] = molecular target: T7, Short transient receptor potential channel 4 (Mus musculus, UniProt Q9QUQ5); assay: calcium entry via TRPC4 opening agents – cell-based, HEK293 TRPC4/mu-opioid, Fluo-4 calcium, dose response (AID 434937); format: functional
T7 sequence (Q9QUQ5 whole entry): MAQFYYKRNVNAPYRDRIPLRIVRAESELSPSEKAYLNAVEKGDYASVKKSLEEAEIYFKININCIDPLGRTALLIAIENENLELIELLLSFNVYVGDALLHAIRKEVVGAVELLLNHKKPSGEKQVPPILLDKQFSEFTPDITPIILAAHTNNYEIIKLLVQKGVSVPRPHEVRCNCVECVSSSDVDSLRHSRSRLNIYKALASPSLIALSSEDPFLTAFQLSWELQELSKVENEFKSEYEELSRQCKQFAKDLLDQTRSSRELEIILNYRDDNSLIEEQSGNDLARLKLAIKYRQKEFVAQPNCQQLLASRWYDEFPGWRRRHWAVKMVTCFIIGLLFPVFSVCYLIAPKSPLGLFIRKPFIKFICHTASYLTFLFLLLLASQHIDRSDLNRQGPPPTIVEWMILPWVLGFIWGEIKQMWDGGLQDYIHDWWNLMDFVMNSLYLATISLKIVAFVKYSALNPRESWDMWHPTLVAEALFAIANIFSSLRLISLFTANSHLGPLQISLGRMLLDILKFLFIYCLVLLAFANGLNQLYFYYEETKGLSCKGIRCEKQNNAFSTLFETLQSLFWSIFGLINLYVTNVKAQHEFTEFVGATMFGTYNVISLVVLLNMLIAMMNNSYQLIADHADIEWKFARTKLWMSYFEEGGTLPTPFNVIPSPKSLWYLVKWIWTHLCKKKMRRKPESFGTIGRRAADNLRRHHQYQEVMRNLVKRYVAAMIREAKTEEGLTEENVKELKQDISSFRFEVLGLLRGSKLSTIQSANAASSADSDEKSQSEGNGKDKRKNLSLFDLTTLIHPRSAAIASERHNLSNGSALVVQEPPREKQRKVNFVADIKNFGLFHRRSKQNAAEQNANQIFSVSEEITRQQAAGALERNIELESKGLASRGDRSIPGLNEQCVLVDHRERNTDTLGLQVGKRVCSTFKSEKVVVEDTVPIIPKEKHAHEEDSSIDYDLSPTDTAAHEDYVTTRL

[14] = NIH3T3 cell viability loss – ATP luminescence, mouse fibroblasts, counter-screen, dose response (AID 2010); format: functional, cell-based;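 also: cells exposed to compound for about 90 hours before reading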

Glyceraldehyde-3-phosphate dehydrogenase, sequence (P04406 whole entry): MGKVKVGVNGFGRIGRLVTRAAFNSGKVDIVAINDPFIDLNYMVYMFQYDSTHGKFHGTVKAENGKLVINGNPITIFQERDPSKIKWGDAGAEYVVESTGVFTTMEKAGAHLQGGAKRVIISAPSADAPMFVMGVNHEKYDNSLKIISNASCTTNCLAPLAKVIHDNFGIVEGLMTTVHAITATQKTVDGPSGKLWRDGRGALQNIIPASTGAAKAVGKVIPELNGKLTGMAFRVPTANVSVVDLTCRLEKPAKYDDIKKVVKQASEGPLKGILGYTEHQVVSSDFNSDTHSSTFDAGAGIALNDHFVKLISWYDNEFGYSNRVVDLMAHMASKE
Cytochrome P450 2C9, sequence (P11712 whole entry): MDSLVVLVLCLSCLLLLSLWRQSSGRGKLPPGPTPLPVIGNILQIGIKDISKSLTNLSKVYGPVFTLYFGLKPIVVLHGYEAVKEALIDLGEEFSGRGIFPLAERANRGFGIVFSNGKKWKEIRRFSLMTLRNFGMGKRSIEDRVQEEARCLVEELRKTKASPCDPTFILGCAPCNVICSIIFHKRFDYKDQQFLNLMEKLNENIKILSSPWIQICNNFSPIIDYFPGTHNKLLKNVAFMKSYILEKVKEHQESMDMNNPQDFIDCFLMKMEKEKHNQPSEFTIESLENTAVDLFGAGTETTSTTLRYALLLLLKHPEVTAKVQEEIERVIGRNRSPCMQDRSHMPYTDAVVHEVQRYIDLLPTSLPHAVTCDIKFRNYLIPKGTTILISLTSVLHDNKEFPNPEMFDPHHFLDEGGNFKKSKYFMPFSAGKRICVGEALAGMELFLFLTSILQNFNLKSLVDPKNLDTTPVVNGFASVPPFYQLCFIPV
T2 sequence (P11940 whole entry): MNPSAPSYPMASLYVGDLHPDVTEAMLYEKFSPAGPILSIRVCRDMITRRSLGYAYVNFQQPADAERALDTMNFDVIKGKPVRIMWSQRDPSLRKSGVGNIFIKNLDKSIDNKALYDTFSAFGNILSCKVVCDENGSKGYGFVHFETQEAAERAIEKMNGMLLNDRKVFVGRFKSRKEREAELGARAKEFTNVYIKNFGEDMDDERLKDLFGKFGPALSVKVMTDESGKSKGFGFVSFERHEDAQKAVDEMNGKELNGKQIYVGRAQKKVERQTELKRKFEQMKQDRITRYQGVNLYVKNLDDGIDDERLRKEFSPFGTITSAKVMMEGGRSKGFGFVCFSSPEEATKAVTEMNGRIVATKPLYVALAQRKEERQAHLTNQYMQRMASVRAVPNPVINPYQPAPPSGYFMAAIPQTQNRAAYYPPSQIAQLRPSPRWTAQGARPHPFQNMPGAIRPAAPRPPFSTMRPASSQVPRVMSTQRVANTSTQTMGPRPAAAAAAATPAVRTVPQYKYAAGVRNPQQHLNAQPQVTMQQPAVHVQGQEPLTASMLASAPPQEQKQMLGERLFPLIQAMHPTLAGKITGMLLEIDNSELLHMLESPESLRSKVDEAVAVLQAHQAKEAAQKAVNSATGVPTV
T4 sequence (Q00975 whole entry): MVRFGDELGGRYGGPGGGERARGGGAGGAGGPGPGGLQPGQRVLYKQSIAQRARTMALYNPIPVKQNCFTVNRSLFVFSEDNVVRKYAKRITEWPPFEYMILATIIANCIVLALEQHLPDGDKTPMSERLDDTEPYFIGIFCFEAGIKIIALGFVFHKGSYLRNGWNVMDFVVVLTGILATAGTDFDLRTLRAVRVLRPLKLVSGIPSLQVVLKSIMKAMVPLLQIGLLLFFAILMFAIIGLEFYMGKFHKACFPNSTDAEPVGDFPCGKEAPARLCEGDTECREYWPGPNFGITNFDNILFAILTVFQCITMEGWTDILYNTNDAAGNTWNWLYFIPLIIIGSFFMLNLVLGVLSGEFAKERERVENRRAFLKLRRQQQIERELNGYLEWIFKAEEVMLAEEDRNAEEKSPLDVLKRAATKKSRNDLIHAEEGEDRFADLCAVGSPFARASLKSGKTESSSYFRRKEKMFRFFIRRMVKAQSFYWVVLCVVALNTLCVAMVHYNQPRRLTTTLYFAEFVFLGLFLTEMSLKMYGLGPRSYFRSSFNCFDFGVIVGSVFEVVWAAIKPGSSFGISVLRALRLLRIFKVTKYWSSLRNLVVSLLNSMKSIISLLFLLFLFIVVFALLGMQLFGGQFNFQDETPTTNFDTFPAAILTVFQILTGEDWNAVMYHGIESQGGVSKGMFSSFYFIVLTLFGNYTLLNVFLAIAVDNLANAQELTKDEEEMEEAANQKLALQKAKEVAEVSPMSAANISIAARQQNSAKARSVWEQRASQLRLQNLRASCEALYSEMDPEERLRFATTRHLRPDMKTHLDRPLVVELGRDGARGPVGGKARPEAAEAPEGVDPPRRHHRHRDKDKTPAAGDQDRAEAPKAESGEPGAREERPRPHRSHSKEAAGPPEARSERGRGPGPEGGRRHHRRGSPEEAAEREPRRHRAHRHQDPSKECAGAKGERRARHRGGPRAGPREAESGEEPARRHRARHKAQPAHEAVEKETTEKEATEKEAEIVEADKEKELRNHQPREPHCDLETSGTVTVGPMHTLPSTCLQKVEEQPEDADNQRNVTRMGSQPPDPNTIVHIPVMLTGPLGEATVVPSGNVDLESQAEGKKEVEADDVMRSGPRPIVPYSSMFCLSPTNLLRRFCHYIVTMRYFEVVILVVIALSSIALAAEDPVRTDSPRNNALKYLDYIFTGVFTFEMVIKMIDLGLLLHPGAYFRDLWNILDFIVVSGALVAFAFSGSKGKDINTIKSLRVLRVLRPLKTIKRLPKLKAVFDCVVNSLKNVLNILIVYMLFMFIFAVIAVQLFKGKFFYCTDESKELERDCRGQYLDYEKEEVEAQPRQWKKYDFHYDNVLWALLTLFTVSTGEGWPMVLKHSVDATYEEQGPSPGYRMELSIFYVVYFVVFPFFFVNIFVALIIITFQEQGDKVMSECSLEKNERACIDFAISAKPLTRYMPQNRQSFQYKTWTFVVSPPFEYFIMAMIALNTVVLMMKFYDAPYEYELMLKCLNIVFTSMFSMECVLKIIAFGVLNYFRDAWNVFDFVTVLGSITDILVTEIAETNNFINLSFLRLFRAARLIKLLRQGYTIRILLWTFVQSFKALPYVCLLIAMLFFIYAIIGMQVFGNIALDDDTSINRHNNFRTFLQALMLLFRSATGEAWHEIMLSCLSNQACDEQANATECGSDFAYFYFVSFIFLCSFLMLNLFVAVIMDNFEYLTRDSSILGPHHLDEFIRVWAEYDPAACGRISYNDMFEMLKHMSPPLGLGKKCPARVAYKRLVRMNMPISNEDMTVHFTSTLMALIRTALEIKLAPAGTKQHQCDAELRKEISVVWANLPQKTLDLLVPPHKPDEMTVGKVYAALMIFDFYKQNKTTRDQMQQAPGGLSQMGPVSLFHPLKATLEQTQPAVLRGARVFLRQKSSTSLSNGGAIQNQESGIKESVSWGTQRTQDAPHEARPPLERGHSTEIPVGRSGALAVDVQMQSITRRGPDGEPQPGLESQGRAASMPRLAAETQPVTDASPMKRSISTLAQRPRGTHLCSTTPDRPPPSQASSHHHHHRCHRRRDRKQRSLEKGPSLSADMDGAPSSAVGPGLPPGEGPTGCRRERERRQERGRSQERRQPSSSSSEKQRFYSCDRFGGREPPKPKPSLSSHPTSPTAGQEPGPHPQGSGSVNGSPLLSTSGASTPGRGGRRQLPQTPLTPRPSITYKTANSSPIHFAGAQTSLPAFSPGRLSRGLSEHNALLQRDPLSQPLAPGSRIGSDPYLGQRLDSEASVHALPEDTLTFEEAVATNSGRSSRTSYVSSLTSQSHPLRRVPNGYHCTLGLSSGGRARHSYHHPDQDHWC
T4 sequence (Q02410 whole entry): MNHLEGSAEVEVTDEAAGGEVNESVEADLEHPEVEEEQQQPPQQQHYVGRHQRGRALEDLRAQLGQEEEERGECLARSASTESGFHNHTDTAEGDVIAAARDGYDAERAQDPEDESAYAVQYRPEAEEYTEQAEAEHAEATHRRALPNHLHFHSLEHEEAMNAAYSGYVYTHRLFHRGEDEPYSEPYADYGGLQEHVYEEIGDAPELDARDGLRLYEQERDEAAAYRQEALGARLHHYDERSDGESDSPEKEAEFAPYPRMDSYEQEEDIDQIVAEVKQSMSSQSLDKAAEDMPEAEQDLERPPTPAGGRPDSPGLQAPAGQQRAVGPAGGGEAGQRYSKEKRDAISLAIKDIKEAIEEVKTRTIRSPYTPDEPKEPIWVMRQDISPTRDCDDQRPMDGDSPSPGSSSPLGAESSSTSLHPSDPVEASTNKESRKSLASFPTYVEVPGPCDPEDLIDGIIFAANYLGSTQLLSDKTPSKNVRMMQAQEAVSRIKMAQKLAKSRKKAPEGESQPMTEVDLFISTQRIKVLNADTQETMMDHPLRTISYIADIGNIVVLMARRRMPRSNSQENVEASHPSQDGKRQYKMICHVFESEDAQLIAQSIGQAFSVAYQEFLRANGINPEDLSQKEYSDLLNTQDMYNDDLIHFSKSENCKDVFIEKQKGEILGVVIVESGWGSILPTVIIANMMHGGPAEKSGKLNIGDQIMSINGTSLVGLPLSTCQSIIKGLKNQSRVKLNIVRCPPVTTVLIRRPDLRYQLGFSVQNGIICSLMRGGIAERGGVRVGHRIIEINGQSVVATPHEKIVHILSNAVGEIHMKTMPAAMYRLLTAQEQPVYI

SMILES: CCCCn1c(N)c(C(=S)NC(=O)CC(C)(C)C)c(=O)n(C)c1=O
- IC50 [3]: > 66 µM (inactive)
- IC50 (Beta-galactosidase): > 66.6 µM (inactive)
- IC50 [4]: > 66 µM (inactive)

SMILES: Cc1c(CC(=O)N2CCN(C(=O)C3COc4ccccc4O3)CC2)c(=O)oc2cc(O)cc(O)c12 (stereo unspecified)
- IC50 (cells): 3.62 µM (active)

SMILES: NCCC[C@@H](CC(=O)N[C@@H]1CCNC[C@H]1C(=O)N[C@H](CC(=O)N[C@@H](CCC(=O)O)CC(=O)O)Cc1c[nH]c2ccccc12)NC(=O)C[C@H](CO)NC(=O)[C@@H]1CNCC[C@H]1N
- AC50 (Cytochrome P450 2C9): 39.8 µM (inconclusive)

SMILES: Cc1ccc(-c2nc3cccnc3s2)cc1NS(=O)(=O)c1cccs1
- CC50 [7]: 20.4 µM (active)
- IC50 (cells): 8.63 µM (active)

SMILES: C#CCOCCOCCOCCNc1nc(N2CCN(C(=O)C([C@@H](C)O)n3cc([C@@H](N)CCCCN)nn3)CC2)nc(N2CCN(C(=O)[C@H](CCCN=C(N)N)n3cc(C(N)[C@@H](C)CC)nn3)CC2)n1 (stereo partly specified)
- IC50 [8]: 12.1 µM (active)
- IC50 (Bcl-2-related protein A1): > 20 µM (inactive)
- IC50 [9]: 7.99 µM (active)

SMILES: COc1ccc(-c2cc(C#N)nc(N3CCNCC3)n2)cc1
- EC50 [10]: 15.2 µM (active)
- IC50 [8]: 15.5 µM (active)
- IC50 (Bcl-2-related protein A1): > 20 µM (inactive)
- EC50 [11]: 9.93 µM (active)
- IC50 [9]: 15.9 µM (active)
- EC50 [12]: 3.69 µM (active)
- EC50 [13]: 1.88 µM (active)
- EC50 [14]: > 60 µM (not active)

The remaining lines, values ahead:

- IC50 [1]: > 10 µM (inconclusive)
- IC50 [2]: 0.12 µM (active)
SMILES: NNC(=O)c1cc(-c2ccc(F)cc2F)[nH]n1

- IC50 (Estrogen receptor): > 50 µM (not active)
SMILES: Cc1ccccc1Nc1nc(N)nc(CSc2nc3ccccc3c(=O)n2C)n1

- IC50 [1]: > 100 µM (not active)
- IC50 [2]: > 100 µM (inactive)
SMILES: O=C1C2CCCCC2C(=O)N1c1nc(CCc2ccccc2)n[nH]1 (stereo unspecified)

- AC50 (Cytochrome P450 2C9): 7.94 µM (inconclusive)
SMILES: COc1ccc(/C=C/C2=CC3(C)CC2(C)C(c2ccc(OC)cc2)CC3=O)cc1 (stereo unspecified)

- IC50 [1]: > 100 µM (not active)
- IC50 [2]: > 100 µM (inactive)
SMILES: CCOc1cc(C)ccc1S(=O)(=O)Nc1cccnc1

- IC50 [5]: > 50 µM (inactive)
- IC50 [6]: 7.74 µM (active)
SMILES: N#C/C(=C\c1ccc(OCCN2CCOCC2)cc1)C(=O)Nc1ccc(S(N)(=O)=O)cc1

- IC50 [8]: 19.8 µM (active)
- IC50 (Bcl-2-related protein A1): > 20 µM (inactive)
- IC50 [9]: > 20 µM (inactive)
SMILES: COc1ccc(NS(=O)(=O)c2cc(C(=O)N3CCC3)ccc2C)cc1
